Experimental data published in ChEMBL document CHEMBL1697731, “Cheminformatics analysis of assertions mined from literature that describe drug-induced liver injury in different species” (Chem Res Toxicol, 2010).

Experiments:
Hepatotoxicity [1] = assay: Literature-mined compound from Fourches et al multi-species drug-induced liver injury (DILI) dataset, effect in humans; settings: human
Hepatotoxicity [2] = assay: Literature-mined compound from Fourches et al multi-species drug-induced liver injury (DILI) dataset, effect in rodents; settings: rodentia
Hepatotoxicity [3] = assay: Literature-mined compound from Fourches et al multi-species drug-induced liver injury (DILI) dataset, effect in non-rodents

SMILES	Hepatotoxicity (Hepatotoxicity [1])	Hepatotoxicity (Hepatotoxicity [2])	Hepatotoxicity (Hepatotoxicity [3])	Hepatotoxicity (Hepatotoxicity [1]; Liver)	Hepatotoxicity (Hepatotoxicity [2]; Liver)	Hepatotoxicity (Hepatotoxicity [3]; Liver)
CCCCCCCCCCCCCCCCCC(=O)O.CC[C@H]1OC(=O)[C@H](C)[C@@H](O[C@H]2C[C@@](C)(OC)[C@@H](O)[C@H](C)O2)[C@H](C)[C@@H](O[C@@H]2O[C@H](C)C[C@H](N(C)C)[C@H]2O)[C@](C)(O)C[C@@H](C)C(=O)[C@H](C)[C@@H](O)[C@]1(C)O [ERYTHROMYCIN STEARATE]	drug-induced liver injury reported	no drug-induced liver injury reported	no drug-induced liver injury reported	–	–	–
CC[C@H]1OC(=O)[C@H](C)[C@@H](O[C@H]2C[C@@](C)(OC)[C@@H](O)[C@H](C)O2)[C@H](C)[C@@H](O[C@@H]2O[C@H](C)C[C@H](N(C)C)[C@H]2O)[C@](C)(O)C[C@@H](C)C(=O)[C@H](C)[C@@H](O)[C@]1(C)O [ERYTHROMYCIN]	drug-induced liver injury reported	drug-induced liver injury reported	no drug-induced liver injury reported	–	–	–
COc1ccc2nc([S@@+]([O-])Cc3ncc(C)c(OC)c3C)[nH]c2c1 [ESOMEPRAZOLE]	drug-induced liver injury reported	no drug-induced liver injury reported	no drug-induced liver injury reported	–	–	–
Clc1ccc2c(c1)C(c1ccccc1)=NCc1nncn1-2 [ESTAZOLAM]	no drug-induced liver injury reported	drug-induced liver injury reported	no drug-induced liver injury reported	–	–	–
CCCCC(=O)O[C@H]1CC[C@H]2[C@@H]3CCc4cc(O)ccc4[C@H]3CC[C@]12C [ESTRADIOL VALERATE]	no drug-induced liver injury reported	drug-induced liver injury reported	no drug-induced liver injury reported	–	–	–
C[C@]12CC[C@@H]3c4ccc(O)cc4CC[C@H]3[C@@H]1CC[C@@H]2O [ESTRADIOL]	drug-induced liver injury reported	drug-induced liver injury reported	drug-induced liver injury reported	–	–	–
C[C@]12CC[C@@H]3c4ccc(OC(=O)N(CCCl)CCCl)cc4CC[C@H]3[C@@H]1CC[C@@H]2O [ESTRAMUSTINE]	drug-induced liver injury reported	no drug-induced liver injury reported	no drug-induced liver injury reported	–	–	–
C[C@]12CC[C@@H]3c4ccc(O)cc4CC[C@H]3[C@@H]1C[C@@H](O)[C@@H]2O [ESTRIOL]	no drug-induced liver injury reported	drug-induced liver injury reported	no drug-induced liver injury reported	–	–	–
C[C@]12CC[C@@H]3c4ccc(OS(=O)(=O)O)cc4CC[C@H]3[C@@H]1CCC2=O [ESTRONE SULFURIC ACID]	no drug-induced liver injury reported	drug-induced liver injury reported	no drug-induced liver injury reported	–	–	–
C[C@]12CC[C@@H]3c4ccc(O)cc4CC[C@H]3[C@@H]1CCC2=O [ESTRONE]	drug-induced liver injury reported	drug-induced liver injury reported	no drug-induced liver injury reported	–	–	–
C=C(CC)C(=O)c1ccc(OCC(=O)O)c(Cl)c1Cl [ETHACRYNIC ACID]	no drug-induced liver injury reported	drug-induced liver injury reported	drug-induced liver injury reported	–	–	–
C#C[C@]1(O)CC[C@H]2[C@@H]3CCc4cc(O)ccc4[C@H]3CC[C@@]21C [ETHINYL ESTRADIOL]	drug-induced liver injury reported	drug-induced liver injury reported	drug-induced liver injury reported	–	–	–
CCc1cc(C(N)=S)ccn1 [ETHIONAMIDE]	–	–	–	drug-induced liver injury reported	drug-induced liver injury reported	no drug-induced liver injury reported
CCOc1ccc2nc(S(N)(=O)=O)sc2c1 [ETHOXZOLAMIDE]	no drug-induced liver injury reported	drug-induced liver injury reported	no drug-induced liver injury reported	–	–	–
CCc1cccc2c3c([nH]c12)C(CC)(CC(=O)O)OCC3 (stereo not given) [ETODOLAC]	drug-induced liver injury reported	drug-induced liver injury reported	no drug-induced liver injury reported	–	–	–
CCOC(=O)c1cncn1[C@H](C)c1ccccc1 [ETOMIDATE]	drug-induced liver injury reported	drug-induced liver injury reported	no drug-induced liver injury reported	–	–	–
CCOC(=O)[C@@]1(CCCCCCOc2ccc(Cl)cc2)CO1 [ETOMOXIR]	drug-induced liver injury reported	drug-induced liver injury reported	drug-induced liver injury reported	–	–	–
COc1cc([C@@H]2c3cc4c(cc3[C@@H](O[C@@H]3O[C@@H]5CO[C@@H](C)O[C@H]5[C@H](O)[C@H]3O)[C@H]3COC(=O)[C@H]23)OCO4)cc(OC)c1O [ETOPOSIDE]	–	–	–	drug-induced liver injury reported	drug-induced liver injury reported	no drug-induced liver injury reported

SMILES	Hepatotoxicity (Hepatotoxicity [1])	Hepatotoxicity (Hepatotoxicity [2])	Hepatotoxicity (Hepatotoxicity [3])	Hepatotoxicity (Hepatotoxicity [1]; Liver)	Hepatotoxicity (Hepatotoxicity [2]; Liver)	Hepatotoxicity (Hepatotoxicity [3]; Liver)
CCOC(=O)/C=C(C)/C=C/C=C(C)/C=C/c1c(C)cc(OC)c(C)c1C [ETRETINATE]	drug-induced liver injury reported	no drug-induced liver injury reported	no drug-induced liver injury reported	–	–	–
Cc1cc(-c2ccc(/N=N/c3ccc4c(S(=O)(=O)[O-])cc(S(=O)(=O)[O-])c(N)c4c3O)c(C)c2)ccc1/N=N/c1ccc2c(S(=O)(=O)[O-])cc(S(=O)(=O)[O-])c(N)c2c1O.[Na+].[Na+].[Na+].[Na+] [EVANS BLUE]	no drug-induced liver injury reported	drug-induced liver injury reported	no drug-induced liver injury reported	–	–	–
CC1=C(CC(=O)O)c2cc(F)ccc2/C1=C\c1ccc(S(C)(=O)=O)cc1 [EXISULIND]	drug-induced liver injury reported	no drug-induced liver injury reported	no drug-induced liver injury reported	–	–	–
O=C1[C@H](CC[C@H](O)c2ccc(F)cc2)[C@@H](c2ccc(O)cc2)N1c1ccc(F)cc1 [EZETIMIBE]	drug-induced liver injury reported	drug-induced liver injury reported	drug-induced liver injury reported	–	–	–
CC(=O)OCC(CCn1cnc2cnc(N)nc21)COC(C)=O [FAMCICLOVIR]	drug-induced liver injury reported	no drug-induced liver injury reported	no drug-induced liver injury reported	–	–	–
NC(N)=Nc1nc(CSCCC(N)=NS(N)(=O)=O)cs1 [FAMOTIDINE]	–	–	–	drug-induced liver injury reported	drug-induced liver injury reported	no drug-induced liver injury reported
COc1ccc2cc1Oc1ccc(cc1)C[C@H]1c3cc(c(OC)cc3CCN1C)Oc1c(OC)c(OC)cc3c1[C@H](C2)N(C)CC3 [FANCHININ]	drug-induced liver injury reported	drug-induced liver injury reported	no drug-induced liver injury reported	–	–	–
O=S(=O)(c1cccc2cnccc12)N1CCCNCC1 [FASUDIL]	drug-induced liver injury reported	drug-induced liver injury reported	no drug-induced liver injury reported	–	–	–
NC(=O)OCC(COC(N)=O)c1ccccc1 [FELBAMATE]	drug-induced liver injury reported	drug-induced liver injury reported	no drug-induced liver injury reported	–	–	–
CCOC(=O)C1=C(C)NC(C)=C(C(=O)OC)C1c1cccc(Cl)c1Cl (stereo not given) [FELODIPINE]	drug-induced liver injury reported	no drug-induced liver injury reported	no drug-induced liver injury reported	–	–	–
NCCCC[C@H](NC(=O)[C@@H]1CCCN1C(=O)[C@@H]1CSSC[C@H](N)C(=O)N[C@@H](Cc2ccccc2)C(=O)N[C@@H](Cc2ccccc2)C(=O)N[C@@H](CCC(N)=O)C(=O)N[C@@H](CC(N)=O)C(=O)N1)C(=O)NCC(N)=O [FELYPRESSIN]	no drug-induced liver injury reported	no drug-induced liver injury reported	drug-induced liver injury reported	–	–	–
CC(C)OC(=O)C(C)(C)Oc1ccc(C(=O)c2ccc(Cl)cc2)cc1 [FENOFIBRATE]	drug-induced liver injury reported	drug-induced liver injury reported	no drug-induced liver injury reported	–	–	–
CC1=C(/C=C/C(C)=C/C=C/C(C)=C/C(=O)Nc2ccc(O)cc2)C(C)(C)CCC1 [FENRETINIDE]	drug-induced liver injury reported	drug-induced liver injury reported	no drug-induced liver injury reported	–	–	–
CCCCCCCCc1ccc(CCC(N)(CO)CO)cc1 [FINGOLIMOD]	drug-induced liver injury reported	drug-induced liver injury reported	no drug-induced liver injury reported	–	–	–
O=C(NCC1CCCCN1)c1cc(OCC(F)(F)F)ccc1OCC(F)(F)F (stereo not given) [FLECAINIDE]	drug-induced liver injury reported	no drug-induced liver injury reported	no drug-induced liver injury reported	–	–	–
Cn1cc([S+](C)[O-])c(=O)c2ccc(F)cc21 (stereo not given) [FLOSEQUINAN]	drug-induced liver injury reported	no drug-induced liver injury reported	no drug-induced liver injury reported	–	–	–
Cc1onc(-c2c(F)cccc2Cl)c1C(=O)N[C@@H]1C(=O)N2[C@@H]1SC(C)(C)[C@@H]2C(=O)O [FLOXACILLIN]	drug-induced liver injury reported	drug-induced liver injury reported	no drug-induced liver injury reported	–	–	–
